Results: US11484032B2, “Compositions for inhibition of insect sensing” (Vanderbilt University, priority 2011, dated 2022)

Key:
[1] = target: T1, AgORco+AgOR10 (Anopheles gambiae, UniProt Q7QCC7); assay: Fluo-4 Ca2+ imaging, HEK293 cells expressing Orco+AgOR10; assay type: cell-based; set-up: Orco 10 + Orco Angatonist % Reduction / Orco 10 + Orco Agonist % of control: concentration or dose not given beside the values; settings: for Orco 10 + Orco Potentiator % increase: potentiator mode; for Orco 10 + Orco Angatonist % Reduction: antagonist mode
T1 construct: expressed in transfected cells
T1 sequence (Q7QCC7 1-478): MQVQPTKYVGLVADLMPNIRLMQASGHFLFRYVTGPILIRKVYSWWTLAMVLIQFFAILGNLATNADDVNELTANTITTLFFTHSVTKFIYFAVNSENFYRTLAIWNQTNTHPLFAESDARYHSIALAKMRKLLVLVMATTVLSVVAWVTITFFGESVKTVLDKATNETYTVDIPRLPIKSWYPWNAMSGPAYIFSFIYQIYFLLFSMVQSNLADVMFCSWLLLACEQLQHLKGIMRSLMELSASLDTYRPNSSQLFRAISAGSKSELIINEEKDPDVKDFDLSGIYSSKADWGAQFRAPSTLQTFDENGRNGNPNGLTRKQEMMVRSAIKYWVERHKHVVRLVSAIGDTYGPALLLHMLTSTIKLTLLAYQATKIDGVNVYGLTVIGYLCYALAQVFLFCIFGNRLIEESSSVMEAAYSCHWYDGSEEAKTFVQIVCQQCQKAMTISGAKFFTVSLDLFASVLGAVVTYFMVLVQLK
Text: (§1) For transient transfections, ORs were cloned into pCl (Promega) and transfected into Flp-In™ T-REx™293 cell lines (Invitrogen) with Fu GENE6 (Roche). For the creation of stable cell lines, a cell culture expression vector capable of expressing Orco in conjunction with a conventional OR, pcDNA5/FRT/TO (Invitrogen) was modified to create two individual expression cassettes each under the control of a separate CMV/Tet02 promoter and a BGH poly-adenylation signal. Cells (as above) were transfected with the modified pcDNA5 plasmid along with POG44 (a Flp recombinase expression plasmid) to facilitate site-specific recombination. Stable cell lines were selected using Hygromycin B (Invitrogen). Cells were maintained in DMEM (Invitrogen) supplemented with 10% Tetracycline-free FBS (HyClone) and 15 ng/ml Blasticidin. For fluorometric Ca2+ measurements, stable lines expressing ORs of interest were seeded at 20,000 cells/well in black wall, poly-lysine coated 384-well cell culture plates (Greiner) and treated with […] tetracycline (Sigma) overnight to induce OR expression. Cells were dye-loaded with 1.8 uM Fluo-4 AM (Molecular Probes), 2.5 mM Probenecid (Molecular Probes) in assay buffer (20 mM HEPES, IX HBSS) for 45 minutes at 37° C. in 5% CO2 prior to each assay. Ca^2+ mobilization was assayed in an FDSS6000 (Hamamatsu). Baseline readings were taken for 20 s before automated addition of compound previously diluted in DMSO and assay buffer. Ratios were described as Maximum/Minimum response and each response was normalized to the maximum responder.
As part of an ongoing, cell based calcium imaging screen for novel small-molecule modulators of AgORs that might disrupt olfactory-driven mosquito behaviors (Rinker et al manuscript in preparation), the inventors identified a number of compounds that activated AgOR10+AgORco-expressing human embryonic kidney (HEK293) cells. One of these compounds, (FIG. 3 A) denoted here as VUAA1, elicited activity consistent with allosteric agonism and was pursued for its novel properties. The identity of VUAA1 was verified using high-resolution mass spectrometry (HRMS) as well as ^1H and ^13C NMR. […] As AgORco was the common element among these functional responses, the inventors postulated that VUAA1 was a potential AgORco agonist.

[2] = target: T2, Orco 28 + Orco (Anopheles gambiae, UniProt Q7QCC7); assay: Orco 28 + Orco: agonist / antagonist / potentiator screen (Table 1); assay type: cell-based; settings: for Orco 28 + Orco Potentiator % increase: potentiator mode; for Orco 28 + Orco Antagonist % Reduction: antagonist mode
T2 construct: expressed in transfected cells
T2 sequence (Q7QCC7 1-478): T1 sequence (Q7QCC7 1-478)
Experimental: (§2) The activity against insect odorant sensory receptors was evaluated for various disclosed compounds, and the data were collected in Table 1.

[3] = target: T2, Orco 28 + Orco; assay: Ca2+ imaging, cells expressing Orco + OR28 (Table 1 head "Orco 28 + Orco"); assay type: cell-based; settings: for Orco 28 + Orco Potentiator % increase: potentiator mode; for Orco 28 + Orco Antagonist % Reduction: antagonist mode
Experimental: as §2

[4] = target: T2, Orco 28 + Orco; assay: Activity against insect odorant sensory receptors, Orco 28 + Orco (Table 1); assay type: cell-based; settings: potentiator mode
Experimental: as §2

[5] = target: T3, AgORco (Anopheles gambiae, UniProt Q7QCC7); assay: Whole-cell patch clamp, HEK293 cells stably expressing AgORco alone; assay type: cell-based; settings: for whole-cell current response: AgORco alone cells, holding potential −60 mV
T3 construct: expressed in transfected cells
T3 sequence (Q7QCC7 1-478): T1 sequence (Q7QCC7 1-478)
Experimental: (§3) Currents from OR-expressing HEK293 cells were amplified with an Axopatch 200b Amplifier (Axon Instruments) and digitized through a Digidata 1322A (Axon Instruments). Electrophysiological data was recorded and analyzed using pCLAMP 10 (Axon Instruments). Electrodes were fabricated from quartz tubing (Sutter Instruments) and pulled to 4-6 MiΩ for whole cell recording. Electrodes were filled with internal solution (120 mM KCl, 30 mM D-glucose, 10 mM HEPES, 2 mM MgCl2, 1.1 mM EGTA, and 0.1 CaCl2) (pH 7.35, 280 mOsm). External (bath) solution contained 130 mM NaCl, 34 mM D-glucose, 10 mM HEPES, 1.5 mM CaCl2), 1.3 mM KH2PO4, and 0.5 MgSO4 (pH 7.35, 300 mOsm). Compounds were diluted in external solution and locally perfused to the recording cell using Perfusion Pencil (Automate Scientific) and controlled by a ValveLink 8.2 controller (Automate Scientific). Whole cell recordings were sampled at 10 kHz and filtered at 5 kHz. Outside-out patches were obtained using 10-15MΩ electrodes pulled from standard glass capillaries (World Precision Instruments) and fire-polished with an MF-830 micro forge (Narishige). Single channel recordings were sampled at 20 kHz. Recordings were reduced to 1 kHz and low-pass filtered at 500 Hz for display and analysis using QuB (SUNY at Buffalo).
(§4) To test the hypothesis that VUAA1 directly agonized AgORco, whole-cell patch clamp responses were examined in AgORco+AgOR10 expressing cells as well as HEK293 cells stably expressing AgORco alone. […] The VUAA1-dependent currents in AgORco+AgOR10 cells resembled those resulting from application of benzaldehyde, an orthosteric agonist of AgOR10 (FIG. 3C) (Wang, 2010; Carey, 2010). […] To investigate the specificity of VUAA1 agonism, the inventors transiently transfected HEK cells with the AgORco orthologs of Drosophila melanogaster and Heliothis virescens, DmORco and HvOR2 respectively.

[6] = target: T1, AgORco+AgOR10; assay: Whole-cell patch clamp, HEK293 cells expressing AgORco+AgOR10; assay type: cell-based; settings: AgORco+AgOR10 cells; for whole-cell current response: holding potential −60 mV
Experimental: as §3, §4

[7] = target: T4, AgORco+AgOR48 (Anopheles gambiae, UniProt Q7QCC7); assay: Ca2+ imaging, HEK cells expressing AgORco+AgOR48; assay type: cell-based; settings: AgORco co-expressed with AgOR48; read-out: EC50
T4 construct: expressed in transfected cells
T4 sequence (Q7QCC7 1-478): T1 sequence (Q7QCC7 1-478)
Text: as §1
The ability of VUAA1 and its analogs to agonize representative ORco proteins from dipteran (Anopheles gambiae, AgORco), lepidopteran (Heliothis virescens, HvORco) and hymenopteran (Harpegnathos saltator, HsORco) orders was tested. […] Furthermore, the hierarchy of VUAA series potency was the same, irrespective of whether AgORco was co-expressed with AgOR65 or AgOR48 tuning ORs (FIG. 45). Without wishing to be bound by a particular theory, odorant ligands are thought to activate the complex via interaction with the tuning ORx and thereby affect ORco/ORx channel properties. […] These findings indicate VUAA-class OR co-modulators are viable compounds for further development as broad-spectrum insect control strategies, and VUAA4 can provide an advance in the pharmacological profile of VUAA-based compounds.

[8] = test system: An. gambiae early 4th instar larvae; assay: Larval mosquito movement assay (Daniovision-Ethovision); assay type: in vivo, Anopheles gambiae
Experimental: Next, the agonist activity of the VUAA compound class was tested to establish the involvement of AgORs in mediating larval ortho and klinokinesis in response to a series of semiochemicals using larval-stage An. gambiae mosquitoes. Mosquito larvae are aquatic, thus compounds can be delivered to individual early 4th instar larvae regardless of volatility. The assay currently utilizes 6-well plates and the Daniovision-Ethovision platform (Noldus Inc.) to simultaneously record and analyze 6 larvae, thereby providing modest rates of throughput and a high degree of reproducibility. In these assays, larval movements are automatically quantified over 5-minute period and control larvae consistently move the same number of times in the presence or absence of 0.1% DMSO (p=0.80, n=31) (FIGS. 42-43). Furthermore, the effects of the widely-used synthetic insect repellent N, N-diethyl-meta-toluamide (DEET) was tested and DEET was also observed to increase larval movements at and above a threshold concentration of 5×10^−4M (p=0.013, n=27) (FIGS. 42-43).

[9] = target: T5, AgOrco+AgOR65 (Anopheles gambiae, UniProt Q7QCC7); assay: Ca2+ imaging, HEK cells expressing AgOrco+AgOR65; assay type: cell-based
T5 construct: expressed in transfected cells
T5 sequence (Q7QCC7 1-478): T1 sequence (Q7QCC7 1-478)
Text: as §1
For VUAA0, a single methyl from the para position of the aniline ring (compound VUAA0, FIG. 44) in the VUAA1 structure was removed. […] In VUAA0.5, unsaturation was introduced at the para position of the aniline ring (VUAA0.5, FIG. 44). […] In VUAA2, the ethyl group of the aniline ring in VUAA1 was replaced with an isopropyl group (VUAA2, FIG. 44).

COC(=O)c1ccccc1NC(=O)CSc1nnc(-c2cccnc2)n1C
Orco 10 + Orco Potentiator % increase ([1]; 10 + Orco): 15.15%
Orco 28 + Orco Potentiator % increase [2]: 18.02%

Cn1c(SCC(=O)Nc2ccc(Br)cc2)nnc1-c1cccnc1
Orco 28 + Orco Potentiator % increase [2]: 11.23%

Cn1c(SCC(=O)Nc2ccc(F)cc2)nnc1-c1cccnc1
Orco 28 + Orco Antagonist % Reduction [2]: 11.09%

Cc1ccc(NC(=O)CSc2nnc(-c3cccnc3)n2C)c(C)c1
Orco 28 + Orco Potentiator % increase [2]: 12.63%

CC(=O)n1ccc2ccc(C(=O)CSc3nnc(-c4cccnc4)n3C)cc21
Orco 28 + Orco Antagonist % Reduction [2]: 13.76%

Cc1cc(C)c(C(=O)CSc2nnc(-c3cccnc3)n2C)c(C)c1
Orco 28 + Orco Antagonist % Reduction [2]: 18.21%

CCn1c(SCc2nc3ccccc3[nH]2)nnc1-c1cccnc1
Orco 10 + Orco Potentiator % increase ([1]; 10 + Orco): 7.5%
Orco 28 + Orco Potentiator % increase [2]: 15.1%

CCn1c(SCC(=O)NCc2ccco2)nnc1-c1cccnc1
Orco 10 + Orco Potentiator % increase ([1]; 10 + Orco): 10.23%
Orco 28 + Orco Antagonist % Reduction [2]: 10.89%

CCn1c(SCC(=O)C(C)(C)C)nnc1-c1cccnc1
Orco 10 + Orco Potentiator % increase ([1]; 10 + Orco): 12.1%
Orco 28 + Orco Potentiator % increase [2]: 17.24%

C=CCn1c(SCc2cc3c(cc2Cl)OCO3)nnc1-c1cccnc1
Orco 28 + Orco Antagonist % Reduction [2]: 16.91%

NC(=O)CSc1nnc(-c2cccnc2)n1-c1ccccc1
Orco 28 + Orco Potentiator % increase [3]: 15.18%

O=C(CSc1nnc(-c2cccnc2)n1-c1ccc(Br)cc1)c1c[nH]c2ccccc12
Orco 28 + Orco Potentiator % increase [3]: 19.9%

Clc1ccc(-n2c(SC/C=C/c3ccccc3)nnc2-c2cccnc2)cc1
Orco 28 + Orco Antagonist % Reduction [3]: 20.56%
Orco 10 + Orco Potentiator % increase ([1]; Orco 10 + Orco): 48.08%

O=C(CSc1nnc(-c2cccnc2)n1Cc1ccccc1)Nc1ccc(F)cc1
Orco 28 + Orco Potentiator % increase [3]: 16.12%

O=C(CSc1nnc(-c2cccnc2)n1CCc1ccccc1)NCc1ccccc1
Orco 28 + Orco Potentiator % increase [3]: 15.9%

CCOc1ccccc1-n1c(SCC(=O)c2cccc([N+](=O)[O-])c2)nnc1-c1cccnc1
Orco 28 + Orco Antagonist % Reduction [3]: 25.53%
Orco 10 + Orco Angatonist % Reduction ([1]; Orco 10 + Orco): 22.28%

CCOc1ccccc1-n1c(SCC(N)=O)nnc1-c1cccnc1
Orco 28 + Orco Potentiator % increase [3]: 14.71%

CCc1cccc(CC)c1-n1c(SCn2nnc3ccccc3c2=O)nnc1-c1cccnc1
Orco 28 + Orco Antagonist % Reduction [3]: 22.91%
Orco 10 + Orco Angatonist % Reduction ([1]; Orco 10 + Orco): 25.00%

CCn1c(SCC(=O)Nc2ccc(Cl)cc2C)nnc1-c1ccncc1
Orco 28 + Orco Potentiator % increase [4]: 17.69%

CCn1c(Cc2ccccc2)nnc1SCC(=O)Nc1ccc(OC)cc1
Orco 28 + Orco Potentiator % increase [4]: 12.7%

Nc1ncnc2c1nc(Br)n2[C@@H]1O[C@@H]2COP(=O)(O)O[C@H]2[C@H]1O [8-Br cAMP, 8-Br-cAMP]
whole-cell current response [5]: unable to evoke whole-cell currents
whole-cell current response [6]: unable to evoke whole-cell currents

Nc1nc2c(nc(Br)n2[C@@H]2O[C@@H]3COP(=O)(O)O[C@H]3[C@H]2O)c(=O)[nH]1 [8-Br cGMP, 8-Br-cGMP]
whole-cell current response [5]: unable to evoke whole-cell currents
whole-cell current response [6]: unable to evoke whole-cell currents

N.N.N.N.N.N.N.N.N.N.N.N.N.N.[Cl-].[Cl-].[Cl-].[Cl-].[Cl-].[Cl-].[O-2].[O-2].[Ru+3].[Ru+3].[Ru+4] [RR, Ruthenium Red]
reduction of VUAA1 responses ([5]; AgORco cells, agonist VUAA1): 79.4±4.0%
reduction of VUAA1-elicited currents ([6]; agonist VUAA1): 68.3±2.8%
reduction of benzaldehyde-elicited currents ([6]; agonist benzaldehyde): 87.8±1.8%

CC(C)c1ccc(NC(=O)CSc2nnc(-c3ccncc3)n2C2CC2)cc1 [VUAA4, 2-((4-cyclopropyl-5-(pyridin-4-yl)-4H-1,2,4-triazol-3-yl)thio)-N-(4-isopropylphenyl)acetamide]
EC50 [7]: 1.7 µM
larval movement at the highest concentration ([8]; 10^−5M): Reduced larval movement
larval movement response ([8]; 10^−8M): absence of response
larval behavioral (movement) response ([8]; compared with DMSO controls or VUAA1): higher levels of movement
lower response threshold compared to VUAA1 ([8]; in vivo): 5 fold
threshold concentration for increased larval movement ([8]; movements over 5-minute period): 1 nM
improvement in agonist potency compared to VUAA1 ([9]; AgOrco+AgOR65): 10 fold
maximum response relative to earlier VUAA compounds ([9]; AgOrco+AgOR65): additional improvement in the maximum response when compared to VUAA1
EC50 ([9]; heteromeric OR channels AgOrco+AgOR65, read-out: EC50): 2.1 µM
